The test system of the first data set is free PSA.
Assay: not given
Conditions: not given
Take “Ac-AlaAsnGluIleSerTyrGln.vertline.SerAlaSerThrGlu-amide”: the cleaved bond result is “Gln-Ser”. Turning to “Ac-AlaAsnLysAlaSerTyrGln.vertline.SerAlaSerCys-amide”, the cleaved bond result is “Gln-Ser”. Consider “Ac-AlaAsnLysAlaSerTyrGln.vertline.SerAlaSerThrGlu-amide”, for which the cleaved bond entry is on record as “Gln-Ser”. For “Ac-AlaAsnLysIleSerTyrGln.vertline.SerAlaLysThrGlu-amide”, the cleaved bond entry was “Gln-Ser”.

“Ac-AlaAsnLysIleSerTyrGln.vertline.SerAlaSerThrGlu-amide”: the cleaved bond entry is on record as “Gln-Ser”. For “Ac-AlaAsnLysIleSerTyrGln.vertline.SerSerGlnThrGlu-amide”, the cleaved bond result is recorded as “Gln-Ser”. The same measure, in the same setting: next, “Ac-AlaAsnLysIleSerTyrGln.vertline.SerSerLysThrGlu-amide”: “Gln-Ser”.

“Ac-AlaAsnLysIleSerTyrGln.vertline.SerSerSerThrGlu-amide”: the cleaved bond result was “Gln-Ser”.

For the compound “Ac-AlaAsnLysIleSerTyrGln.vertline.SerSerSerThrLeu”, the cleaved bond result is given as “Gln-Ser”.

With “Ac-AlaAsnLysIleSerTyrGln.vertline.SerSerSerThrLeu-amide”, the cleaved bond entry is “Gln-Ser”. On the same count and under the same terms, to “Ac-AlaAsnLysIleSerTyrGln.vertline.SerSerThrGlu-amide” belongs “Gln-Ser”; to “Ac-AlaAsnLysIleSerTyrGln.vertline.SerThrGlu-amide”, “Gln-Ser”. The same measure, in the same setting: next, “Ac-AlaAsnLysIleSerTyrTyr.vertline.SerAlaSerThrGlu-amide”: “Tyr-Ser”. The same measure, in the same setting: next, “Ac-AlaAsnLysIleSerTyrTyr.vertline.SerSerSerThrGlu-amide”: “Tyr-Ser”; “Ac-AlaAsnLysSerTyrGln.vertline.SerSerThrGlu-amide”: “Gln-Ser”. As to “Ac-AlaAsnSerTyrGln.vertline.SerSerSerThrGlu-amide”, the cleaved bond entry is reported as “Gln-Ser”. Same read-out and setting: next, “Ac-AlaAspLysAlaLysTyrGln.vertline.SerSer(Cha)-NHNH2”: “Gln-Ser”; “Ac-AlaSerTyrGln.vertline.SerSerLeu-amide”: “Gln-Ser”. As for “Ac-AlaSerTyrGln.vertline.SerSerSerThrGlu-amide”, the cleaved bond result is “Gln-Ser”. Same read-out and setting: to “Ac-AlaSerTyrGln.vertline.SerSerThrGlu-amide” belongs “Gln-Ser”.

“Ac-AsnLysIleSerTyrGln.vertline.SerSer-amide”: the cleaved bond result was “Gln-Ser”. Take “Ac-LysIleSerTyrGln.vertline.SerSer-amide”: the cleaved bond entry is recorded as “Gln-Ser”. Still for that read-out and setting: to “Ac-SerTyrGln.vertline.SerSerSerThrGlu-amide” belongs “Gln-Ser”; to “Ac-SerTyrGln.vertline.SerSerThrGlu-amide”, “Gln-Ser”; to “Ac-hArg(Cha)Gln.vertline.SerSerSer(ethylester-Leu)”, “Gln-Ser”.

On to “Ac-hArgTyrGln.vertline.SerSerSer(Ethylester-Leu)”, for which the cleaved bond result is recorded as “Gln-Ser”. As for Ac-hArgTyrGln.vertline.SerSerSer(MeLeu), the cleaved bond entry is given as “Gln-Ser”. For “AlaAsnLysIleSerTyrGln.vertline.SerSerSerThrGlu-amide”, the cleaved bond result is given as “Gln-Ser”.

The next data set deals with LNCaP prostate tumor cells. Description: In vitro cytotoxicity of peptidyl derivatives of doxorubicin (Alamar Blue assay). Format: cell-based, human. The following applies: FIG. 4, cells incubated 3 days at 37° C. The protocol: The cytotoxicities of the non-cleaveable oligopeptide-doxorubicin conjugates, prepared as described in Example 4, against a line of cells which is known to be killed by unmodified doxorubicin were assessed with an Alamar Blue assay. Specifically, cell cultures of LNCaP prostate tumor cells, which are a human metastatic prostate adenocarcinoma isolated from a needle biopsy of a lymph node (LNCaP.FGC: American Type Culture Collection, ATCC CRL 1740), or DuPRO cells in 96 well plates were diluted with medium containing various concentrations of a given conjugate (final plate well volume of 200 μl). The cells were incubated for 3 days at 37° C. and then 20 μl of Alamar Blue was added to the assay well. The cells were further incubated and the assay plates were read on a EL-310 ELISA reader at the dual wavelengths of 570 and 600 nm at 4 and 7 hours after addition of Alamar Blue. Relative percentage viability at the various concentration of conjugate tested was then calculated versus control (no conjugate) cultures. Cytotoxicities of unmodified doxorubicin and unmodified oligopeptide were also assessed.
On the technique in general: The colour change of resazurin is a common sign of viable cells or microbes.
Broadly, the EC50 is the concentration giving half of the maximal effect. The compound `COc1cccc2c1C(=O)c1c(O)c3c(c(O)c1C2=O)C[C@@](O)(C(=O)CO)C[C@@H]3O[C@H]1C[C@H](N)[C@H](O)[C@H](C)O1` [doxorubicin] came in with an EC50 of 300 nM. In other words, the sub-micromolar range.
